PubChem BioAssay AID624404 (Broad Institute, 2012)
Records with an inconclusive call do not appear.

Each compound was assayed on D54 LucT luciferase reporter counterscreen, luminescence, 24 h (assay: luciferase activators in glycosylation-insensitive reporter cells, dose response, counter-screen for N-linked glycosylation inhibitor project, D54 LucT cells, luminescence, cherry pick (AID 624404)).

Row | SMILES | AC35 [µM]
1 | C=CCNc1nc2cc(-c3ccccc3C)sc2c(=O)n1C | 1.11
2 | COc1ccccc1NC(=O)c1ccc(-c2ccc(Br)cc2)o1 | 0.466
3 | COc1cccc(/C=N/NC(=O)c2ccc(N3CCCC3=O)cc2)c1 | 0.733
4 | Cc1ccc(-c2nn3c(C)nnc3c3ccccc23)cc1S(=O)(=O)N(C)CCO | 0.599
5 | CC[C@H](C)C(=O)O[C@H]1CCC=C2C=C[C@H](C)[C@H](CC[C@@H]3C[C@@H](O)CC(=O)O3)[C@H]21 | 1.26
6 | COc1cc2cnc(-c3ccccc3)cc2cc1OC | 2.54
7 | CCOc1ccc(/C=C/C(=O)c2ccccc2)cc1OC | 1.26
8 | Cc1nn(-c2ccccc2)c(Cl)c1/C=N/Nc1nc2ccccc2[nH]1 | 0.0235
9 | CCCOc1ccc2ccccc2c1/C=N/n1c(C)nnc1-n1nc(C)cc1C | 0.0184
10 | C[C@@]12C(=O)Nc3cc(Cl)ccc3C(=O)N1[C@H]1c3cc(Br)ccc3OC[C@@H]1[C@@H]2c1ccccc1 | 2.55
11 | CCc1ccc(C(=O)Nc2ccc3c(c2)n(C)c(=O)n3C)cc1 | 2.63
12 | Cc1ccc(NC(=O)c2ccc(Cl)cc2[N+](=O)[O-])nc1 | 2.42
13 | CCOC(=O)N1CCc2cc(OC)c(OC)c3c2c1cc1cc(OC)c(OC)cc13 | 1.94
14 | COc1ccc(/C=N/NC(=O)c2sccc2OCc2ccc(F)cc2)cc1OC | 0.952
15 | Cn1c(=O)n(C)c2cc(S(=O)(=O)N3CCCc4ccccc43)ccc21 | 10.2
16 | Cc1ccc(-c2cc(C(=O)NCC(c3ccccc3)N(C)C)c3ccccc3n2)o1 (centres undefined) | 3.3
17 | CCOc1nc(N=C(N)N)nc2c(C)cccc12 | 0.603
18 | COc1ccc(-n2c(NNC(C)=O)nc3sc4c(c3c2=O)CCCC4)cc1 | 1.86
19 | COc1cc(C(=O)Nc2cc(C(F)(F)F)ccc2N2CCOCC2)ccc1OCC(=O)N1CCOCC1 | 2.13
20 | C=CCOc1ccc(/C=C2\SC(N3CCCCC3)=NC2=O)cc1 | 0.0089
21 | COc1ccc(CNC(=O)c2cccc3c(-c4cnn(C)c4)coc23)cc1OC | 1.3
22 | O=C(Nc1c(Cl)ccc2nsnc12)c1ccc([N+](=O)[O-])o1 | 0.778
23 | CCN(CC)S(=O)(=O)c1cccc(C(=O)OCC(=O)Nc2ccc3c(c2)c2ccccc2n3CC)c1 | 1.39
24 | COc1ccccc1NC(=O)c1cnc(SCC(=O)NCC2CCCO2)n(C)c1=O (centres undefined) | 4.93
25 | O=c1cc(-c2ccc(O)cc2)oc2cc(O)c(C3OC(CO)C(O)C(O)C3O)c(O)c12 (centres undefined) | 0.0151
26 | Cn1c(=O)[nH]c(=O)c2c1nc(NN)n2CCOc1ccccc1 | 3.09
27 | O=C1c2cccc3c([N+](=O)[O-])ccc(c23)C(=O)N1CC1CCCO1 (centres undefined) | 0.315

Row | SMILES | AC35 [µM]
28 | COC(=O)c1cc(=O)n(-c2ccc(F)cc2)c(=Nc2ccc(F)cc2)s1 | 0.0251
29 | Cc1ccc(-n2c(SCC(=O)NCCC3=CCCCC3)nc3n[nH]c(C)c3c2=N)cc1Cl | 0.0399
30 | C=CCOc1ccc(C(=O)Nc2ccccc2C(=O)NCc2cccnc2)cc1 | 0.109
31 | Nc1nc(-c2ccccc2)cc(-c2ccccc2O)n1 | 1.76
32 | O=c1[nH]c(-c2ccccc2)nc2sc(-c3ccccc3)cc12 | 0.188
33 | COc1ccc(/C=N/NC(=O)c2ccccc2OCc2ccccc2)c(OC)c1 | 1.6
34 | Cn1c(=O)[nH]c(=O)c2c1nc(N1CCN(Cc3ccccc3)CC1)n2CCCc1ccccc1 | 0.465
35 | O=C(C[C@@H]1C/C=C/CC[C@H](Cc2ccc(F)cc2)C(=O)OC[C@@H](Cc2ccccc2)NC1=O)N[C@H](CO)Cc1ccccc1 | 4.64
36 | Cc1nnc2c(NC3CCCCC3)nc3ccccc3n12 | 3.51
37 | COc1ccc(-c2cc3ccccc3oc2=O)cc1NC(=O)c1ccc([N+](=O)[O-])o1 | 0.837
38 | COc1ccc(Cl)cc1/C=C/c1ccc2cccc(O)c2n1 | 0.0221
39 | O=C(N/N=C/c1ccccc1)c1sccc1OCc1ccc(F)cc1 | 3.06
40 | O=C(N/N=C/c1ccccn1)c1sc2ccccc2c1Cl | 0.0931
41 | Cc1ccnc(NC(=O)Nc2ccc3c(c2)N(C)C(=O)CS3)c1 | 0.00868
42 | c1ccc(C2=Nn3c(nnc3-c3n[nH]c4c3CCC4)SC2)cc1 | 2.25
43 | O=C(Nc1ccc(S(=O)(=O)N2CCOCC2)cc1)c1cc(-c2cc(Cl)ccc2O)n[nH]1 | 1.37
44 | CNC(=O)c1cccn(Cc2ccc(C(F)(F)F)cc2)c1=O | 1.24
45 | Cc1ccc(C)n1-c1ccc(C(=O)/C=C/N(C)C)cc1 | 1.05
46 | COc1cc2c(cc1OC)C(=O)N1[C@H]3c4cc(C)ccc4OC[C@@H]3[C@H](c3ccccc3)[C@]1(C)C(=O)N2 | 0.131
47 | C/C(=N\NC(=O)c1c(Cl)c(C)nn1C)c1ccc(NC(=O)C2CCC2)cc1 | 0.475
48 | COc1ccccc1-c1csc(C(NC(C)=O)c2ccc(F)c(F)c2)n1 (centres undefined) | 0.42
49 | CN(Cc1ccccc1)c1nc2c(c(=O)n(C)c(=O)n2C)n1CCCc1ccccc1 | 0.893
50 | COc1cc(NC(=O)CN2c3cccc4cccc(c34)S2(=O)=O)cc(OC)c1OC | 7.53
51 | CCc1nc2ccc(C(=O)NCCc3c[nH]c4ccccc34)cn2c1N(C=O)CCC(C)C | 0.645
52 | COc1cccc(C(NC(C)=O)c2nc(-c3ccccc3OC)cs2)c1 (centres undefined) | 0.0933
53 | Cc1cc(C)cc(N=Cc2ccc([N+](=O)[O-])s2)c1 | 0.724
54 | Cc1ccc2nc(SCc3nnc(-c4ccccc4[N+](=O)[O-])o3)c(C#N)cc2c1 | 1.3
